Measurements from PubChem BioAssay AID1259407 (Chemical Carcinogenesis Research Information System (CCRIS), 2018).
Active and inactive are the calls of the source. The rule behind the calls is not given here.

System: CCRIS mutagenicity, Ames/micronucleus/aberration tests
Assay: CCRIS mutagenicity studies
[1] = Test System: AMES SALMONELLA TYPHIMURIUM, Strain/Indicator: TA98, Metabolic Activation: NONE, Method: STANDARD PLATE
[2] = Test System: AMES SALMONELLA TYPHIMURIUM, Strain/Indicator: TA100, Metabolic Activation: NONE, Method: STANDARD PLATE
[3] = Test System: AMES SALMONELLA TYPHIMURIUM, Strain/Indicator: TA1537, Metabolic Activation: NONE, Method: STANDARD PLATE

Measured: mutagenic call

CCCCCCCOc1ccccc1NC(=O)OCCN1CCCCC1
inactive: Test System: AMES SALMONELLA TYPHIMURIUM, Strain/Indicator: TA98, Metabolic Activation: MOUSE, LIVER, S-9, AROCLOR 1254, Method: PREINCUBATION inactive; negative | Test System: AMES SALMONELLA TYPHIMURIUM, Strain/Indicator: TA98, Metabolic Activation: NONE, Method: PREINCUBATION inactive; negative | Test System: AMES SALMONELLA TYPHIMURIUM, Strain/Indicator: TA100, Metabolic Activation: MOUSE, LIVER, S-9, AROCLOR 1254, Method: PREINCUBATION inactive; negative | Test System: AMES SALMONELLA TYPHIMURIUM, Strain/Indicator: TA100, Metabolic Activation: NONE, Method: PREINCUBATION inactive; negative | Test System: AMES SALMONELLA TYPHIMURIUM, Strain/Indicator: TA1535, Metabolic Activation: MOUSE, LIVER, S-9, AROCLOR 1254, Method: PREINCUBATION inactive; negative | Test System: AMES SALMONELLA TYPHIMURIUM, Strain/Indicator: TA1535, Metabolic Activation: NONE, Method: PREINCUBATION inactive; negative | Test System: AMES SALMONELLA TYPHIMURIUM, Strain/Indicator: TA1538, Metabolic Activation: MOUSE, LIVER, S-9, AROCLOR 1254, Method: PREINCUBATION inactive; negative | Test System: AMES SALMONELLA TYPHIMURIUM, Strain/Indicator: TA1538, Metabolic Activation: NONE, Method: PREINCUBATION inactive; negative | Test System: AMES SALMONELLA TYPHIMURIUM, Strain/Indicator: TA1978, Metabolic Activation: MOUSE, LIVER, S-9, AROCLOR 1254, Method: PREINCUBATION inactive; negative | Test System: AMES SALMONELLA TYPHIMURIUM, Strain/Indicator: TA1978, Metabolic Activation: NONE, Method: PREINCUBATION inactive; negative | Test System: E. COLI, Strain/Indicator: CM611 UVRA/LEXA, Metabolic Activation: MOUSE, LIVER, S-9, AROCLOR 1254, Method: PREINCUBATION inactive; negative | Test System: E. COLI, Strain/Indicator: CM611 UVRA/LEXA, Metabolic Activation: NONE, Method: PREINCUBATION inactive; negative | Test System: E. COLI, Strain/Indicator: WP2, Metabolic Activation: MOUSE, LIVER, S-9, AROCLOR 1254, Method: PREINCUBATION inactive; negative | Test System: E. COLI, Strain/Indicator: WP2, Metabolic Activation: NONE, Method: PREINCUBATION inactive; negative | Test System: E. COLI, Strain/Indicator: WP2 UVRA, Metabolic Activation: MOUSE, LIVER, S-9, AROCLOR 1254, Method: PREINCUBATION inactive; negative | Test System: E. COLI, Strain/Indicator: WP2 UVRA, Metabolic Activation: NONE, Method: PREINCUBATION inactive; negative | Test System: E. COLI, Strain/Indicator: WP67 UVRA/POLA, Metabolic Activation: MOUSE, LIVER, S-9, AROCLOR 1254, Method: PREINCUBATION inactive; negative | Test System: E. COLI, Strain/Indicator: WP67 UVRA/POLA, Metabolic Activation: NONE, Method: PREINCUBATION inactive; negative

C[C@]12CC[C@@H]3c4cc(O)c(O)cc4CC[C@H]3[C@@H]1CCC2=O
inactive: Test System: Ames Salmonella typhimurium, Strain/Indicator: TA98, Metabolic Activation: None, Method: Standard plate inactive; negative | Test System: Ames Salmonella typhimurium, Strain/Indicator: TA98, Metabolic Activation: Rat, liver, S-9, Method: Standard plate inactive; negative | Test System: Ames Salmonella typhimurium, Strain/Indicator: TA100, Metabolic Activation: None, Method: Standard plate inactive; negative | Test System: Ames Salmonella typhimurium, Strain/Indicator: TA100, Metabolic Activation: Rat, liver, S-9, Method: Standard plate inactive; negative

O=C(CCBr)N1CCN(C(=O)CCBr)CC1
inactive: [1] inactive; negative | Test System: AMES SALMONELLA TYPHIMURIUM, Strain/Indicator: TA102, Metabolic Activation: NONE, Method: STANDARD PLATE inactive; negative | [3] inactive; negative
active: [2] active; positive | Test System: E. COLI, Strain/Indicator: WP2 (HCR), Metabolic Activation: NONE, Method: STANDARD PLATE active; positive

CNC(=O)Oc1cccc2c1OC(C)(C)O2
inactive: End Point: IN VIVO MICRONUCLEUS, Test System: BONE MARROW POLYCHROMATIC ERYTHROCYTES, Species: RABBIT, Strain/Sex: HYBRID HYLA/MALE, FEMALE, Route: ORAL (GAVAGE) inactive; negative | End Point: In vitro Chromosomal aberrations, Test System: Human lymphocytes, Metabolic Activation: None inactive; negative
active: End Point: In vitro Chromosomal aberrations, Test System: Human lymphocytes, Metabolic Activation: Activation by unspecified source active; positive

Brc1ccc2c(c1)[C@H]1O[C@H]1[C@H]1CCCC[C@H]21
inactive: [1] inactive; negative | [2] inactive; negative

CC(=O)c1ccc(N)cc1
inactive: Test System: E. COLI, Strain/Indicator: WP2 UVRA, Metabolic Activation: NONE, Method: FLUCTUATION TEST inactive; negative

NCP(=O)(O)O
active: End Point: In vitro chromosome aberrations, Test System: Human peripheral blood lymphocytes, Metabolic Activation: None active; positive (structural changes) | End Point: In vivo micronucleus, Test System: Bone marrow erythrocytes, Species: Mouse, Strain/Sex: BALB/Male and female, Route: Intraperitoneal active; positive

CCOC(=O)CC(=O)CCl
active: Test System: MOUSE LYMPHOMA, Strain/Indicator: L5178Y (TK+/TK-), Metabolic Activation: NONE, Method: SUSPENSION/PLATE active; positive. reevaluation of results: positive | Test System: MOUSE LYMPHOMA, Strain/Indicator: L5178Y (TK+/TK-), Metabolic Activation: RAT, LIVER, S-9, AROCLOR 1254, Method: SUSPENSION/PLATE active; positive. reevaluation of results: positive
inactive: Test System: AMES SALMONELLA TYPHIMURIUM, Strain/Indicator: TA98, Metabolic Activation: HAMSTER, LIVER, S-9, AROCLOR 1254, Method: STANDARD PLATE inactive; negative | [1] inactive; negative | Test System: AMES SALMONELLA TYPHIMURIUM, Strain/Indicator: TA98, Metabolic Activation: RAT, LIVER, S-9, AROCLOR 1254, Method: STANDARD PLATE inactive; negative | Test System: AMES SALMONELLA TYPHIMURIUM, Strain/Indicator: TA100, Metabolic Activation: HAMSTER, LIVER, S-9, AROCLOR 1254, Method: STANDARD PLATE inactive; negative | [2] inactive; negative | Test System: AMES SALMONELLA TYPHIMURIUM, Strain/Indicator: TA100, Metabolic Activation: RAT, LIVER, S-9, AROCLOR 1254, Method: STANDARD PLATE inactive; negative | Test System: AMES SALMONELLA TYPHIMURIUM, Strain/Indicator: TA1535, Metabolic Activation: HAMSTER, LIVER, S-9, AROCLOR 1254, Method: STANDARD PLATE inactive; negative | Test System: AMES SALMONELLA TYPHIMURIUM, Strain/Indicator: TA1535, Metabolic Activation: NONE, Method: STANDARD PLATE inactive; negative | Test System: AMES SALMONELLA TYPHIMURIUM, Strain/Indicator: TA1535, Metabolic Activation: RAT, LIVER, S-9, AROCLOR 1254, Method: STANDARD PLATE inactive; negative | Test System: AMES SALMONELLA TYPHIMURIUM, Strain/Indicator: TA1537, Metabolic Activation: HAMSTER, LIVER, S-9, AROCLOR 1254, Method: STANDARD PLATE inactive; negative | [3] inactive; negative | Test System: AMES SALMONELLA TYPHIMURIUM, Strain/Indicator: TA1537, Metabolic Activation: RAT, LIVER, S-9, AROCLOR 1254, Method: STANDARD PLATE inactive; negative | Test System: AMES SALMONELLA TYPHIMURIUM, Strain/Indicator: TA1538, Metabolic Activation: HAMSTER, LIVER, S-9, AROCLOR 1254, Method: STANDARD PLATE inactive; negative | Test System: AMES SALMONELLA TYPHIMURIUM, Strain/Indicator: TA1538, Metabolic Activation: NONE, Method: STANDARD PLATE inactive; negative | Test System: AMES SALMONELLA TYPHIMURIUM, Strain/Indicator: TA1538, Metabolic Activation: RAT, LIVER, S-9, AROCLOR 1254, Method: STANDARD PLATE inactive; negative
